Data from PubChem BioAssay AID298 (DTP/NCI, 2004).
“And” between values parts separate entries of the source, which are not always exact repeats. Equal entries are not always repeated. Records with an inconclusive call do not appear.

System: MX-1 breast xenograft, intrarenal, nude mice, tumor weight
Assay: NCI In Vivo Anticancer Drug Screen. Data for tumor model Human Mammary Carcinoma MX-1 Xenograft (intrarenal inoculation) in NU/NU BALB/C (nude) mice
Conditions: endpoint: mean tumor weight change, higher = larger tumour
Method: The antitumor activity of compounds was measured in mice bearing transplantable tumors. Survival or tumor size were measured and the results are expressed as the measurement made in the treated group (T) divided by the measurement made in the vehicle treated control group (C). The tumor model used in this assay is Human Mammary Carcinoma MX-1 Xenograft (intrarenal inoculation) in NU/NU BALB/C (nude) mice

[1] = dose: 100.0 mg/kg/injection, schedule: Q04DX003 (ip), vehicle: saline with Tween-80
[2] = dose: 200.0 mg/kg/injection, schedule: Q04DX003 (ip), vehicle: saline with Tween-80
[3] = dose: 100.0 mg/kg/injection, schedule: Q01DX010 (sc), vehicle: saline
[4] = dose: 12.5 mg/kg/injection, schedule: Q04DX003 (ip), vehicle: suspension in saline
[5] = dose: 25.0 mg/kg/injection, schedule: Q04DX003 (ip), vehicle: suspension in saline
[6] = dose: 50.0 mg/kg/injection, schedule: Q04DX003 (ip), vehicle: suspension in saline

## CC(C)NC(=O)N(CCCCBr)N=O
dose: 150.0 mg/kg/injection, schedule: Q04DX003 (sc), vehicle: Klucel (hydroxypropylcellulose) (HPC)
  T/C: -61 % of control
dose: 300.0 mg/kg/injection, schedule: Q04DX003 (sc), vehicle: Klucel (hydroxypropylcellulose) (HPC)
  T/C: -100 % of control

## Cc1ccc2c(c1)n([O-])c1cc(Cl)ccc1[n+]2=O
dose: 150.0 mg/kg/injection, schedule: Q04DX003 (ip), vehicle: saline with Tween-80
  T/C: 84 % of control and 86 % of control
dose: 300.0 mg/kg/injection, schedule: Q04DX003 (ip), vehicle: saline with Tween-80
  T/C: 56 % of control and 66 % of control

## c1ccc(P(CCNCCP(c2ccccc2)c2ccccc2)c2ccccc2)cc1
[1]
  T/C: 111 % of control
[2]
  T/C: 106 % of control
dose: 800.0 mg/kg/injection, schedule: Q04DX003 (ip), vehicle: saline with Tween-80
  T/C: 81 % of control

## CN(CO)c1nc(N(C)CO)nc(N(C)CO)n1
dose: 6.25 mg/kg/injection, schedule: Q01DX010 (sc), vehicle: saline
  T/C: 86 % of control
dose: 12.5 mg/kg/injection, schedule: Q01DX010 (sc), vehicle: saline
  T/C: 30 % of control
dose: 25.0 mg/kg/injection, schedule: Q01DX010 (sc), vehicle: saline
  T/C: 2 % of control
[3]
  T/C: 1 % of control

## CC1OC(O[C@H]2/C=C/C=C/C=C/C=C/C=C/C=C/C=C/[C@H](C)[C@@H](O)[C@@H](C)[C@H](C)OC(=O)C[C@H](O)C[C@H](O)CC[C@@H](O)[C@H](O)C[C@H](O)C[C@]3(O)C[C@H](O)[C@@H](C(=O)O)[C@H](C2)O3)C(O)C(N)C1O (some centres not stated)
[4]
  T/C: 61 % of control
[5]
  T/C: 57 % of control
[6]
  T/C: 77 % of control
dose: 100.0 mg/kg/injection, schedule: Q04DX003 (ip), vehicle: suspension in saline
  T/C: 84 % of control and 89 % of control
dose: 200.0 mg/kg/injection, schedule: Q04DX003 (ip), vehicle: suspension in saline
  T/C: 73 % of control
dose: 400.0 mg/kg/injection, schedule: Q04DX003 (ip), vehicle: suspension in saline
  T/C: 79 % of control

## COC1/C=C/C=C(/C)Cc2cc(O)c(Cl)c(c2)N(C)C(=O)CC(OC(=O)C(C)C)C2(C)OC2C(C)C2CC1(O)NC(=O)O2 (configuration not stated)
dose: 1.0 mg/kg/injection, schedule: Q04DX003 (sc), vehicle: saline + alcohol
  T/C: 70 % of control
dose: 2.0 mg/kg/injection, schedule: Q04DX003 (sc), vehicle: saline + alcohol
  T/C: 33 % of control
dose: 4.0 mg/kg/injection, schedule: Q04DX003 (sc), vehicle: saline + alcohol
  T/C: -47 % of control
dose: 8.0 mg/kg/injection, schedule: Q04DX003 (sc), vehicle: saline + alcohol
  T/C: -100 % of control

## C=C1C(O)C2OC3(CCC(/C=C/C(C)C4CC5(C)SC5C5(OC(CC(C)(O)C(=O)O)CCC5O)O4)O3)CCC2OC1C(O)CC(C)C1OC2(CCCCO2)CCC1C (configuration not stated)
dose: 5.0 micrograms/kg/injection, schedule: Q04DX003 (ip), vehicle: saline + alcohol
  T/C: 92 % of control
dose: 10.0 micrograms/kg/injection, schedule: Q04DX003 (ip), vehicle: saline + alcohol
  T/C: 84 % of control
dose: 40.0 micrograms/kg/injection, schedule: Q04DX003 (ip), vehicle: saline + alcohol
  T/C: 56 % of control and 76 % of control

## O=C(Nc1ccccc1)c1c(O)[nH]c(=O)[nH]c1=O
[1]
  T/C: 102 % of control
[2]
  T/C: 71 % of control
dose: 400.0 mg/kg/injection, schedule: Q04DX003 (ip), vehicle: saline with Tween-80
  T/C: 57 % of control

## Cc1cc(N)c2ccccc2[n+]1CCCCCCCCCC[n+]1c(C)cc(N)c2ccccc21
dose: 0.75 mg/kg/injection, schedule: Q01DX010 (ip), vehicle: dextrose
  T/C: 89 % of control
dose: 1.5 mg/kg/injection, schedule: Q01DX010 (ip), vehicle: dextrose
  T/C: 79 % of control
dose: 2.0 mg/kg/injection, schedule: Q01DX010 (ip), vehicle: dextrose
  T/C: 47 % of control
dose: 3.0 mg/kg/injection, schedule: Q01DX010 (ip), vehicle: dextrose
  T/C: 41 % of control

## Cc1cc(SCC(=O)c2ccc(Br)cc2)cc(C)[o+]1
dose: 50.0 mg/kg/injection, schedule: Q01DX010 (sc), vehicle: saline
  T/C: 91 % of control
[3]
  T/C: 124 % of control
dose: 200.0 mg/kg/injection, schedule: Q01DX010 (sc), vehicle: saline
  T/C: 71 % of control
dose: 400.0 mg/kg/injection, schedule: Q01DX010 (sc), vehicle: saline
  T/C: 102 % of control

## Cc1c(O)/c(=C\O)c2nc3c(=O)ccc(C(=O)NCCN(C)C)c3[nH]c2c1=O
dose: 50.0 mg/kg/injection, schedule: Q04DX003 (ip), vehicle: other
  T/C: 77 % of control
dose: 100.0 mg/kg/injection, schedule: Q04DX003 (ip), vehicle: other
  T/C: 100 % of control
dose: 200.0 mg/kg/injection, schedule: Q04DX003 (ip), vehicle: other
  T/C: 44 % of control

## COC(COC(=O)N1CCN(C=O)CC1)C1=C(N2CC2)C(=O)C(C)=C(N2CC2)C1=O (configuration not stated)
dose: 3.0 mg/kg/injection, schedule: Q04DX003 (ip), vehicle: saline
  T/C: 5 % of control and -16 % of control

## COc1cccc2c1C(CO)N1C(C#N)C3CC(C(=O)O)C(C1C2)N3C (configuration not stated)
dose: 3.75 mg/kg/injection, schedule: Q04DX003 (ip), vehicle: saline
  T/C: 31 % of control
dose: 6.25 mg/kg/injection, schedule: Q01DX010 (ip), vehicle: saline
  T/C: -61 % of control
dose: 6.25 mg/kg/injection, schedule: Q04DX003 (ip), vehicle: saline
  T/C: 9 % of control
dose: 6.25 mg/kg/injection, schedule: Q04DX003 (ip), vehicle: suspension in saline
  T/C: 10 % of control
dose: 7.5 mg/kg/injection, schedule: Q04DX003 (ip), vehicle: saline
  T/C: 40 % of control
dose: 12.5 mg/kg/injection, schedule: Q01DX010 (ip), vehicle: saline
  T/C: -100 % of control
dose: 12.5 mg/kg/injection, schedule: Q04DX003 (ip), vehicle: saline
  T/C: 17 % of control
[4]
  T/C: 6 % of control
dose: 15.0 mg/kg/injection, schedule: Q04DX003 (ip), vehicle: saline
  T/C: 38 % of control
dose: 25.0 mg/kg/injection, schedule: Q01DX010 (ip), vehicle: saline
  T/C: -99 % of control
dose: 25.0 mg/kg/injection, schedule: Q04DX003 (ip), vehicle: saline
  T/C: 14 % of control
[5]
  T/C: -48 % of control
dose: 30.0 mg/kg/injection, schedule: Q04DX003 (ip), vehicle: saline
  T/C: 58 % of control
dose: 50.0 mg/kg/injection, schedule: Q04DX003 (ip), vehicle: saline
  T/C: 2 % of control
[6]
  T/C: -79 % of control
dose: 60.0 mg/kg/injection, schedule: Q04DX003 (ip), vehicle: saline
  T/C: 13 % of control

## COc1cc(C2=NCCc3cc4c(cc32)OCO4)cc(OC)c1OC
dose: 75.0 mg/kg/injection, schedule: Q04DX003 (ip), vehicle: saline + alcohol
  T/C: 116 % of control
dose: 150.0 mg/kg/injection, schedule: Q04DX003 (ip), vehicle: saline + alcohol
  T/C: 99 % of control

## CCN(CC)CCOCCO
dose: 600.0 mg/kg/injection, schedule: Q04DX003 (sc), vehicle: saline
  T/C: 121 % of control

## COC(=O)c1ccc(N=NN(C)COC(C)=O)cc1
dose: 60.0 mg/kg/injection, schedule: Q04DX003 (ip), vehicle: Klucel (hydroxypropylcellulose) (HPC)
  T/C: 50 % of control
dose: 120.0 mg/kg/injection, schedule: Q04DX003 (ip), vehicle: Klucel (hydroxypropylcellulose) (HPC)
  T/C: 21 % of control
dose: 400.0 mg/kg/injection, schedule: Q04DX003 (ip), vehicle: Klucel (hydroxypropylcellulose) (HPC)
  T/C: 56 % of control and 58 % of control
dose: 666.67 mg/kg/injection, schedule: Q04DX003 (ip), vehicle: Klucel (hydroxypropylcellulose) (HPC)
  T/C: 33 % of control and 40 % of control

## O=CNCO
dose: 300.0 mg/kg/injection, schedule: Q01DX010 (sc), vehicle: water
  T/C: 68 % of control
dose: 600.0 mg/kg/injection, schedule: Q01DX010 (sc), vehicle: water
  T/C: 39 % of control
dose: 1200.0 mg/kg/injection, schedule: Q01DX010 (sc), vehicle: water
  T/C: 11 % of control
dose: 2000.0 mg/kg/injection, schedule: Q01DX010 (sc), vehicle: water
  T/C: 8 % of control

## COC12[C@@H]3N[C@@H]3CN1C1=C(C(=O)C(NCCSSCCNC3=C(C)C(=O)C4=C(C3=O)C(COC(N)=O)[C@]3(OC)C5N[C@@H]5CN43)=C(C)C1=O)[C@@H]2COC(N)=O (some centres not stated)
dose: 3.12 mg/kg/injection, schedule: Q04DX003 (ip), vehicle: DMSO
  T/C: 24 % of control
dose: 6.25 mg/kg/injection, schedule: Q04DX003 (ip), vehicle: DMSO
  T/C: -41 % of control

## CCn1c(-c2ccc(OC(C)=O)cc2)c(C)c2cc(OC(C)=O)ccc21
dose: 150.0 mg/kg/injection, schedule: Q04DX003 (ip), vehicle: Klucel (hydroxypropylcellulose) (HPC)
  T/C: 68 % of control
dose: 300.0 mg/kg/injection, schedule: Q04DX003 (ip), vehicle: Klucel (hydroxypropylcellulose) (HPC)
  T/C: 61 % of control
dose: 600.0 mg/kg/injection, schedule: Q04DX003 (ip), vehicle: Klucel (hydroxypropylcellulose) (HPC)
  T/C: 63 % of control
dose: 1200.0 mg/kg/injection, schedule: Q04DX003 (ip), vehicle: Klucel (hydroxypropylcellulose) (HPC)
  T/C: 47 % of control
